Reference: patent US11066408B2, “Crystalline binary sodium salts of 5-methyl-(6S)-tetrahydrofolic acid with organic bases” (MERCK PATENT GMBH, priority 2017, dated 2021)

Experimental: The measurement of the kinetic solubility was conducted as described in the experimental part.
0.5 ml of purified/de-ionized water (for instance water for chromatography) is added.
2.535 ml of purified/de-ionized water (for instance water for chromatography) is added to the solid using an adjustable volumetric pipette. The mixture is vigorously agitated at room temperature and briefly sonicated.
Then 0.785 ml of purified/de-ionized water is added.
Then 1.0 ml of purified/de-ionized water is added.

Structure (SMILES): CN1c2c([nH]c(N)nc2=O)NC[C@@H]1CNc1ccc(C(=O)N[C@@H](CCC(=O)[O-])C(=O)[O-])cc1.[Ca+2] [calcium salt of 5-methyl-(6S)-tetrahydrofolic acid]
- kinetic solubility in water (purified/de-ionized water, room temperature, agitated (briefly sonicated), not assay corrected): smaller than 10 mg per 1 ml of water
- time until a clear solution is obtained (weighed solid plus water, agitated at room temperature): No clear solution can be obtained
